From PubChem BioAssay (NCI)
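48-hour exposure; five concentrations; linearly interpolated endpoints. GI50 is the concentration that inhibits growth by half. The concentration for full growth arrest is given as TGI.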

Key:
Test in all cases: NCI-60 cell line screen, 48 h; in the data active = GI50 below about 0.43 µM; inactive = the rest
IGROV1 ovarian = tested on: IGROV1 ovarian
NCI-H23 lung = tested on: NCI-H23 lung
U251 CNS = tested on: U251 CNS
HOP-62 NSCLC = tested on: HOP-62 NSCLC
UACC-62 melanoma = tested on: UACC-62 melanoma
NCI/ADR-RES ovarian = tested on: NCI/ADR-RES ovarian
T-47D breast = tested on: T-47D breast
EKVX NSCLC = tested on: EKVX NSCLC
K-562 leukemia = tested on: K-562 leukemia
A498 renal = tested on: A498 renal
OVCAR-4 ovarian = tested on: OVCAR-4 ovarian
OVCAR-3 ovarian = tested on: OVCAR-3 ovarian
PC-3 prostate = tested on: PC-3 prostate
SK-MEL-5 melanoma = tested on: SK-MEL-5 melanoma
HCC-2998 colon = tested on: HCC-2998 colon
MDA-MB-435 = tested on: MDA-MB-435
HCT-15 colon = tested on: HCT-15 colon
HT29 colon = tested on: HT29 colon
HCT-116 colon = tested on: HCT-116 colon
CAKI-1 renal = tested on: CAKI-1 renal
RPMI-8226 leukemia = tested on: RPMI-8226 leukemia
M14 melanoma = tested on: M14 melanoma
DU-145 prostate = tested on: DU-145 prostate
OVCAR-5 ovarian = tested on: OVCAR-5 ovarian
SR leukemia = tested on: SR leukemia
SN12C renal = tested on: SN12C renal
SK-MEL-2 melanoma = tested on: SK-MEL-2 melanoma
SW-620 colon = tested on: SW-620 colon
786-0 renal = tested on: 786-0 renal
TK-10 renal = tested on: TK-10 renal
COLO 205 colon = tested on: COLO 205 colon
UO-31 renal = tested on: UO-31 renal
UACC-257 melanoma = tested on: UACC-257 melanoma
A549 NSCLC = tested on: A549 NSCLC
SF-539 CNS = tested on: SF-539 CNS
HOP-92 NSCLC = tested on: HOP-92 NSCLC
ACHN renal = tested on: ACHN renal
MDA-N = tested on: MDA-N
MCF7 breast = tested on: MCF7 breast
SF-295 CNS = tested on: SF-295 CNS
MDA-MB-231 breast = tested on: MDA-MB-231 breast
NCI-H522 lung = tested on: NCI-H522 lung
KM12 colon = tested on: KM12 colon
BT-549 breast = tested on: BT-549 breast
SK-OV-3 ovarian = tested on: SK-OV-3 ovarian
LOX IMVI melanoma = tested on: LOX IMVI melanoma
MALME-3M melanoma = tested on: MALME-3M melanoma
OVCAR-8 ovarian = tested on: OVCAR-8 ovarian
NCI-H226 lung = tested on: NCI-H226 lung
SF-268 CNS = tested on: SF-268 CNS
CCRF-CEM leukemia = tested on: CCRF-CEM leukemia
SNB-19 CNS = tested on: SNB-19 CNS
SK-MEL-28 melanoma = tested on: SK-MEL-28 melanoma
NCI-H460 lung = tested on: NCI-H460 lung
SNB-75 CNS = tested on: SNB-75 CNS
HL-60(TB) leukemia = tested on: HL-60(TB) leukemia
RXF 393 renal = tested on: RXF 393 renal
MOLT-4 leukemia = tested on: MOLT-4 leukemia
HS 578T breast = tested on: HS 578T breast

CCCCNC(=S)Nc1nc(C(=O)NNC(=S)NC2CCCCC2)cs1
35.4 µM: TGI (SR leukemia)
> 100 µM: TGI (IGROV1 ovarian) | TGI (NCI-H23 lung) | TGI (U251 CNS) | TGI (HOP-62 NSCLC) | TGI (UACC-62 melanoma) | TGI (NCI/ADR-RES ovarian) | TGI (T-47D breast) | TGI (EKVX NSCLC) | TGI (K-562 leukemia) | TGI (A498 renal) | TGI (OVCAR-4 ovarian) | TGI (OVCAR-3 ovarian) | TGI (PC-3 prostate) | TGI (SK-MEL-5 melanoma) | TGI (HCC-2998 colon) | TGI (MDA-MB-435) | TGI (HCT-15 colon) | TGI (HT29 colon) | TGI (HCT-116 colon) | TGI (CAKI-1 renal) | TGI (RPMI-8226 leukemia) | TGI (M14 melanoma) | TGI (DU-145 prostate) | TGI (OVCAR-5 ovarian) | TGI (SN12C renal) | TGI (SK-MEL-2 melanoma) | TGI (SW-620 colon) | TGI (786-0 renal) | TGI (TK-10 renal) | TGI (COLO 205 colon) | TGI (UO-31 renal) | TGI (UACC-257 melanoma) | TGI (A549 NSCLC) | TGI (SF-539 CNS) | TGI (HOP-92 NSCLC) | TGI (ACHN renal) | TGI (MDA-N) | TGI (MCF7 breast) | TGI (SF-295 CNS) | TGI (MDA-MB-231 breast) | TGI (NCI-H522 lung) | TGI (KM12 colon) | TGI (BT-549 breast) | TGI (SK-OV-3 ovarian) | TGI (LOX IMVI melanoma) | TGI (MALME-3M melanoma) | TGI (OVCAR-8 ovarian) | TGI (NCI-H226 lung) | TGI (SF-268 CNS) | TGI (CCRF-CEM leukemia)

CCN(C(=O)c1cc(F)ccc1Oc1cncnc1N1CC2(CCN(CC3CCC(NS(=O)(=O)CC)CC3)CC2)C1)C(C)C (configuration not stated)
inactive: GI50 (IGROV1 ovarian) > 100 µM | GI50 (NCI-H23 lung) > 100 µM | GI50 (U251 CNS) > 100 µM | GI50 (HOP-62 NSCLC) > 100 µM | GI50 (UACC-62 melanoma) > 100 µM | GI50 (NCI/ADR-RES ovarian) > 100 µM | GI50 (T-47D breast) > 100 µM | GI50 (EKVX NSCLC) > 100 µM | GI50 (K-562 leukemia) > 100 µM | GI50 (A498 renal) > 100 µM | GI50 (OVCAR-4 ovarian) > 100 µM | GI50 (OVCAR-3 ovarian) > 100 µM | GI50 (SNB-19 CNS) > 100 µM | GI50 (PC-3 prostate) > 100 µM | GI50 (SK-MEL-5 melanoma) > 100 µM | GI50 (HCC-2998 colon) > 100 µM | GI50 (MDA-MB-435) > 100 µM | GI50 (HCT-15 colon) > 100 µM | GI50 (SK-MEL-28 melanoma) > 100 µM | GI50 (NCI-H460 lung) > 100 µM | GI50 (SNB-75 CNS) > 100 µM | GI50 (HT29 colon) > 100 µM | GI50 (HCT-116 colon) > 100 µM | GI50 (HL-60(TB) leukemia) > 100 µM | GI50 (CAKI-1 renal) > 100 µM | GI50 (RPMI-8226 leukemia) > 100 µM | GI50 (M14 melanoma) > 100 µM | GI50 (DU-145 prostate) > 100 µM | GI50 (OVCAR-5 ovarian) > 100 µM | GI50 (SR leukemia) > 100 µM | GI50 (SN12C renal) > 100 µM | GI50 (SK-MEL-2 melanoma) > 100 µM | GI50 (SW-620 colon) > 100 µM | GI50 (786-0 renal) > 100 µM | GI50 (RXF 393 renal) > 100 µM | GI50 (TK-10 renal) > 100 µM | GI50 (COLO 205 colon) > 100 µM | GI50 (UO-31 renal) > 100 µM | GI50 (UACC-257 melanoma) > 100 µM | GI50 (A549 NSCLC) > 100 µM | GI50 (SF-539 CNS) > 100 µM | GI50 (HOP-92 NSCLC) > 100 µM | GI50 (MOLT-4 leukemia) > 100 µM | GI50 (ACHN renal) > 100 µM | GI50 (MCF7 breast) > 100 µM | GI50 (SF-295 CNS) > 100 µM | GI50 (MDA-MB-231 breast) > 100 µM | GI50 (NCI-H522 lung) > 100 µM | GI50 (KM12 colon) > 100 µM | GI50 (BT-549 breast) > 100 µM | GI50 (SK-OV-3 ovarian) > 100 µM | GI50 (LOX IMVI melanoma) > 100 µM | GI50 (HS 578T breast) > 100 µM | GI50 (MALME-3M melanoma) > 100 µM | GI50 (OVCAR-8 ovarian) > 100 µM | GI50 (NCI-H226 lung) > 100 µM | GI50 (SF-268 CNS) > 100 µM | GI50 (CCRF-CEM leukemia) > 100 µM
> 100 µM: TGI (IGROV1 ovarian) | TGI (NCI-H23 lung) | TGI (U251 CNS) | TGI (HOP-62 NSCLC) | TGI (UACC-62 melanoma) | TGI (NCI/ADR-RES ovarian) | TGI (T-47D breast) | TGI (EKVX NSCLC) | TGI (K-562 leukemia) | TGI (A498 renal) | TGI (OVCAR-4 ovarian) | TGI (OVCAR-3 ovarian) | TGI (SNB-19 CNS) | TGI (PC-3 prostate) | TGI (SK-MEL-5 melanoma) | TGI (HCC-2998 colon) | TGI (MDA-MB-435) | TGI (HCT-15 colon) | TGI (SK-MEL-28 melanoma) | TGI (NCI-H460 lung) | TGI (SNB-75 CNS) | TGI (HT29 colon) | TGI (HCT-116 colon) | TGI (HL-60(TB) leukemia) | TGI (CAKI-1 renal) | TGI (RPMI-8226 leukemia) | TGI (M14 melanoma) | TGI (DU-145 prostate) | TGI (OVCAR-5 ovarian) | TGI (SR leukemia) | TGI (SN12C renal) | TGI (SK-MEL-2 melanoma) | TGI (SW-620 colon) | TGI (786-0 renal) | TGI (RXF 393 renal) | TGI (TK-10 renal) | TGI (COLO 205 colon) | TGI (UO-31 renal) | TGI (UACC-257 melanoma) | TGI (A549 NSCLC) | TGI (SF-539 CNS) | TGI (HOP-92 NSCLC) | TGI (MOLT-4 leukemia) | TGI (ACHN renal) | TGI (MCF7 breast) | TGI (SF-295 CNS) | TGI (MDA-MB-231 breast) | TGI (NCI-H522 lung) | TGI (KM12 colon) | TGI (BT-549 breast) | TGI (SK-OV-3 ovarian) | TGI (LOX IMVI melanoma) | TGI (HS 578T breast) | TGI (MALME-3M melanoma) | TGI (OVCAR-8 ovarian) | TGI (NCI-H226 lung) | TGI (SF-268 CNS) | TGI (CCRF-CEM leukemia)
